The values that follow are results of earlier work, collected in patent US20090220618A1, “PHARMACEUTICAL FORMULATIONS COMPRISING POLYANIONIC MATERIALS AND SOURCE OF HYDROGEN PEROXIDE” (priority 2008, published 2009).

One may read the pKa as the negative logarithm of the acid dissociation constant.

For data set [1] the following is noted: at 25° C.
Data set [2] deals with sensitive tissues of the eye.

In the case of `CC(C)(CO)NCC(O)CS(=O)(=O)O` (stereo not drawn) [AMP SO], in data set [1], the pKa is given as 9.0.
As to `O=S(=O)(O)CC(O)CN(CCO)CCO` (stereo not drawn) [DIPSO], the pKa in data set [1] was 7.52.
`O=S(=O)(O)CCCCNC(CO)(CO)CO` [TABS, N-tris(hydroxymethyl)methyl-4-aminobutanesulfonic acid]: the pKa in data set [1] was 8.9.
With benzalkonium chloride [BAK], in data set [2], the concentration causing apoptosis is on record as 0.01%, the “concentration causing growth arrest” value is given as 0.00001% and the concentrations causing necrosis was 0.05-0.1%.
